Measurements from PubChem BioAssay AID1845201 (Molecular Pharmacology Branch, DTP, NCI, 2023).

System: COR L88 complex tumor spheroid viability
Assay: Anticancer human tumor COR L88 cell line growth inhibition;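 further: compound exposure lasted 7 days before viability readout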;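 on viability, T/C: percent of DMSO vehicle-treated spheroids = 100%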
Settings: for IC50: curve of first compound; for viability, T/C: stronger effect = lower value
Source text: Multicellular complex tumor spheroid response to DNA repair inhibitors in combination with DNA-damaging drugs
This study explores the anticancer activities of DNA-damaging drugs and inhibitors of DNA damage repair, both as single agents and in combinations. Complex tumor spheroids comprised of malignant cells, endothelial cells and mesenchymal stem cells served as an in vitro model for human solid tumors. This model system incorporates physiologically relevant features and patient-derived or established malignant cell lines with clinically relevant genetic alterations from many tumor types. Twenty-six patient-derived or established malignant cell lines were evaluated representing sarcoma, melanoma, small cell lung cancer (SCLC), non-small cell lung cancer (NSCLC), as well as bladder, ovarian and pancreatic cancers. The concentration ranges selected for each drug and investigational agent were based upon clinically achievable concentrations if the clinical Cmax of the agent was known.
Compounds. The drugs and compounds olaparib (NSC753686), talazoparib (NSC767125), berzosertib (NSC777718), elimusertib (NSC800525), nedisertib (NSC802822), VX-984 (NSC792969), AZD-1390 (NSC803789), temozolomide (NSC362856), topotecan (NSC609699), trabectedin (NSC813783), staurosporine (NSC755774), and gemcitabine (NSC613327) were obtained from the National Cancer Institute (NCI) Developmental Therapeutics Program Chemical Repository. The FDA-approved anticancer drug set is available from the Developmental Therapeutics Program at https://dtp.cancer.gov/organization/dscb/obtaining/available_plates.htm. […] The stock solutions were prepared in dimethyl sulfoxide (DMSO, Sigma-Aldrich, St. Louis, MO, cat. D2650) at 400-fold the tested concentration and stored at -70 degrees C. Prior to their use, the stock solutions were diluted in fresh medium and the final DMSO concentration in the assay was 0.25% (v/v). All drugs and investigational agents were tested over a range starting from a high concentration at or near the clinical Cmax and decreasing in half-log increments. If the clinical Cmax for an agent had not been determined, the highest concentration tested was 10 microM.
Cell Lines. The patient-derived cancer cell (PDC) lines: 156681-154-R-J1-PDC, 283228-195-R-J1-PDC, 287954-098-R-J1-PDC, 292921-168-R-J2-PDC, 349418-098-R-PDC, 425362-245-T-J1-PDC, 556581-035-R-J1-PDC, and BL0293-F563-PDC were received from the NCI Patient-Derived Models Repository (PDMR, https://pdmr.cancer.gov). The established cell lines HS-SY-2 (RRID:CVCL_8719), MPNST, and SYO-1 (RRID:CVCL_7146) were obtained from the Sloan Kettering Institute. The alveolar soft parts sarcoma cell line ASPS-1 (RRID:CVCL_S738) was established at the NCI and grown from internal seed stocks. The following established cell lines were purchased from the American Type Culture Collection (ATCC, Manassas, VA): G-401 (ATCC, cat. CRL-1441, RRID:CVCL_0270), SW982 (ATCC, cat. HTB-93, RRID:CVCL_1734), VA-ES-BJ (ATCC, cat. CRL-2138, RRID:CVCL_1785), NCI-H719 (ATCC, cat. CRL-5837, RRID:CVCL_1582), NCI-H196 (ATCC, cat. CRL-5823, RRID:CVCL_1509), NCI-H841 (ATCC, cat. CRL-5845, RRID:CVCL_1595), NCI-H1618 (ATCC, cat. CRL-5879, RRID:CVCL_1480), NCI-H1876 (ATCC, cat. CRL-5902, RRID:CVCL_1503), DMS 114 (ATCC, cat. CRL-2066; RRID:CVCL_1174), NCI-H211 (ATCC, cat. CRL-5824; RRID:CVCL_1529), and SW 1271 (ATCC, cat. CRL-2177, RRID:CVCL_1716). The small cell lung cancer cell line COR-L88 was purchased from Sigma-Aldrich (cat. 92031917-1VL, RRID:CVCL_1141). The non-small cell lung cancer cell lines NCI-H226 (RRID:CVCL_1544) and NCI-H322M (RRID:CVCL_1557) were established at the NCI and grown from internal seed stocks. Pooled donor human umbilical vein endothelial cells (HUVEC, Lonza, cat. CC-2519) and human mesenchymal stem cells (hMSC, Lonza, cat. PT-2501) were purchased from Lonza (Walkersville, MD).
Cell Culture. All cells were maintained in an incubator at 37 degrees C and 5% CO2 with 95% humidity. […]

Cc1cc(C)c(CNC(=O)c2cc(-c3ccc(CN4CCOCC4)cc3)cc3c2cnn3C2CCCC2)c(=O)[nH]1 + CC[C@@]1(O)C(=O)OCc2c1cc1n(c2=O)Cc2cc3c(CN(C)C)c(O)ccc3nc2-1
IC50 (second compound 0.003 µM): 8.33 µM
IC50 (second compound 0.00949 µM): > 10 µM
IC50 (second compound 0.03 µM): 0.252 µM
IC50 (second compound 0.0949 µM): 0.0441 µM
IC50 (second compound 0.3 µM): < 0.0316 µM
viability, T/C (second compound 0.003 µM, first compound 0.0316 µM): 87%
viability, T/C (second compound 0.003 µM, first compound 0.1 µM): 91.7%
viability, T/C (second compound 0.003 µM, first compound 0.316 µM): 90.4%
viability, T/C (second compound 0.003 µM, first compound 1 µM): 80.8%
viability, T/C (second compound 0.003 µM, first compound 3.16 µM): 73.1%
viability, T/C (second compound 0.003 µM, first compound 10 µM): 45.5%
viability, T/C (second compound 0.00949 µM, first compound 0.0316 µM): 76.9%
viability, T/C (second compound 0.00949 µM, first compound 0.1 µM): 81.5%
viability, T/C (second compound 0.00949 µM, first compound 0.316 µM): 83.8%
viability, T/C (second compound 0.00949 µM, first compound 1 µM): 73%
viability, T/C (second compound 0.00949 µM, first compound 3.16 µM): 60.3%
viability, T/C (second compound 0.00949 µM, first compound 10 µM): 54.4%
viability, T/C (second compound 0.03 µM, first compound 0.0316 µM): 52.4%
viability, T/C (second compound 0.03 µM, first compound 0.1 µM): 56.2%
viability, T/C (second compound 0.03 µM, first compound 0.316 µM): 47.1%
viability, T/C (second compound 0.03 µM, first compound 1 µM): 46.3%
viability, T/C (second compound 0.03 µM, first compound 3.16 µM): 43%
viability, T/C (second compound 0.03 µM, first compound 10 µM): 39.2%
viability, T/C (second compound 0.0949 µM, first compound 0.0316 µM): 51.7%
viability, T/C (second compound 0.0949 µM, first compound 0.1 µM): 48.2%
viability, T/C (second compound 0.0949 µM, first compound 0.316 µM): 45.1%
viability, T/C (second compound 0.0949 µM, first compound 1 µM): 45.9%
viability, T/C (second compound 0.0949 µM, first compound 3.16 µM): 40.5%
viability, T/C (second compound 0.0949 µM, first compound 10 µM): 41.7%
viability, T/C (second compound 0.3 µM, first compound 0.0316 µM): 40.5%
viability, T/C (second compound 0.3 µM, first compound 0.1 µM): 38.4%
viability, T/C (second compound 0.3 µM, first compound 0.316 µM): 39%
viability, T/C (second compound 0.3 µM, first compound 1 µM): 38.1%
viability, T/C (second compound 0.3 µM, first compound 3.16 µM): 35.8%
viability, T/C (second compound 0.3 µM, first compound 10 µM): 30.4%

Cc1sc2c(c1C)C(c1ccc(Cl)cc1)=NC(CC(=O)Nc1ccc(O)cc1)c1nnc(C)n1-2 (stereo not given) + CC[C@@]1(O)C(=O)OCc2c1cc1n(c2=O)Cc2cc3c(CN(C)C)c(O)ccc3nc2-1
IC50 (second compound 0.003 µM): 0.406 µM
IC50 (second compound 0.00949 µM): 0.441 µM
IC50 (second compound 0.03 µM): 0.531 µM
IC50 (second compound 0.0949 µM): 0.185 µM
IC50 (second compound 0.3 µM): 0.0709 µM
viability, T/C (second compound 0.003 µM, first compound 0.00949 µM): 107%
viability, T/C (second compound 0.003 µM, first compound 0.03 µM): 82.7%
viability, T/C (second compound 0.003 µM, first compound 0.0949 µM): 100%
viability, T/C (second compound 0.003 µM, first compound 0.3 µM): 59.9%
viability, T/C (second compound 0.003 µM, first compound 0.949 µM): 23.6%
viability, T/C (second compound 0.003 µM, first compound 3 µM): 15.1%
viability, T/C (second compound 0.00949 µM, first compound 0.00949 µM): 81.8%
viability, T/C (second compound 0.00949 µM, first compound 0.03 µM): 92.6%
viability, T/C (second compound 0.00949 µM, first compound 0.0949 µM): 104%
viability, T/C (second compound 0.00949 µM, first compound 0.3 µM): 64.2%
viability, T/C (second compound 0.00949 µM, first compound 0.949 µM): 23.7%
viability, T/C (second compound 0.00949 µM, first compound 3 µM): 13.3%
viability, T/C (second compound 0.03 µM, first compound 0.00949 µM): 71.2%
viability, T/C (second compound 0.03 µM, first compound 0.03 µM): 88.7%
viability, T/C (second compound 0.03 µM, first compound 0.0949 µM): 106%
viability, T/C (second compound 0.03 µM, first compound 0.3 µM): 73%
viability, T/C (second compound 0.03 µM, first compound 0.949 µM): 25.3%
viability, T/C (second compound 0.03 µM, first compound 3 µM): 8.57%
viability, T/C (second compound 0.0949 µM, first compound 0.00949 µM): 66.6%
viability, T/C (second compound 0.0949 µM, first compound 0.03 µM): 76.2%
viability, T/C (second compound 0.0949 µM, first compound 0.0949 µM): 85.2%
viability, T/C (second compound 0.0949 µM, first compound 0.3 µM): 31.2%
viability, T/C (second compound 0.0949 µM, first compound 0.949 µM): 7.66%
viability, T/C (second compound 0.0949 µM, first compound 3 µM): 5.05%
viability, T/C (second compound 0.3 µM, first compound 0.00949 µM): 53.1%
viability, T/C (second compound 0.3 µM, first compound 0.03 µM): 60.9%
viability, T/C (second compound 0.3 µM, first compound 0.0949 µM): 47.4%
viability, T/C (second compound 0.3 µM, first compound 0.3 µM): 9.5%
viability, T/C (second compound 0.3 µM, first compound 0.949 µM): 3.88%
viability, T/C (second compound 0.3 µM, first compound 3 µM): 2.4%
